Experimental findings from ChEMBL document CHEMBL4219115, “Synthesis and evaluation of 4',5'-dihydrospiro[piperidine-4,7'-thieno[2,3-c]pyran] analogues against both active and dormant Mycobacterium tuberculosis” (Bioorg Med Chem, 2018) are described below.

The subject of data set [1] is Mycobacterium tuberculosis. The data set is described as follows: Antimycobacterial activity against Mycobacterium tuberculosis H37Rv measured after 6 days by resazurin assay. The format is functional. The note with it: 144 h.
Data set [2] concerns Mycobacterium tuberculosis. The data set is described as follows: Antimycobacterial activity against active form of Mycobacterium tuberculosis H37Rv measured after 7 days by alamar blue assay. Type of data set: functional. Particulars: 168 h.
The next data set has as its system RAW264.7. The data set is described as follows: Cytotoxicity against mouse RAW264.7 cells assessed as reduction in cell viability at 50 ug/ml after 48 hrs by MTT assay. The format is cell-based. Particulars: raw264.7, 48 h.
Data set [3] addresses T1, L-lysine-epsilon aminotransferase (Mycobacterium tuberculosis, UniProt P9WQ77).
T1 sequence (P9WQ77 whole entry): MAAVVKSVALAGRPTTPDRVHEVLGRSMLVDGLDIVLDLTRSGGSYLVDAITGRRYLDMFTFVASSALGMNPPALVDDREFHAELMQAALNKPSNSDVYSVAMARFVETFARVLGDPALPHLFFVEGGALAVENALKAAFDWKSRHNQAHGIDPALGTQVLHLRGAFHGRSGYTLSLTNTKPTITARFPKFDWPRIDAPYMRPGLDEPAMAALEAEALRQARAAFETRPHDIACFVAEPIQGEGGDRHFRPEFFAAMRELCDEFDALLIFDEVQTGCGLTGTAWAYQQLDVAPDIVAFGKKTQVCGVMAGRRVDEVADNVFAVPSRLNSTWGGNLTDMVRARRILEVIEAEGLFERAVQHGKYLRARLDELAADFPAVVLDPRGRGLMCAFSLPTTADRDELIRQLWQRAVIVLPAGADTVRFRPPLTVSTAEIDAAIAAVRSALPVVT
The data set is described as follows: Inhibition of Mycobacterium tuberculosis LAT using L-lysine and alpha-ketoglutaric acid as substrate by spectrophotometric analysis.

In data set [4] the test system is Mycobacterium tuberculosis. The data set is described as follows: Antimycobacterial activity against nutrient starved dormant form of Mycobacterium tuberculosis H37Rv assessed as log reduction in bacterial count at 10 ug/ml measured after 7 days by […] relative to control. The format is functional.

pIC50: −log10 of the molar value. In brackets after ≈: the same amount, converted by molar mass.

For the compound `c1cc2c(s1)CCOC21CCN(Cc2ccc3c(c2)OCCO3)CC1`, the lowest concentration to inhibit growth in data set [1] (MIC) was 0.38 µM (≈ 0.136 µg/mL). In the case of `c1ccc(CN2CCC3(CC2)OCCc2ccsc23)cc1`, in data set [2], the MIC turned out to be 83.5 µM (≈ 25 µg/mL). Compound `O=C(c1ccccc1)N1CCC2(CC1)OCCc1ccsc12` yielded a minimum inhibitory concentration (MIC) in data set [2] of 79.8 µM (≈ 25 µg/mL). Take `COc1ccc(S(=O)(=O)N2CCC3(CC2)OCCc2ccsc23)cc1`: the MIC in data set [2] worked out at 8.23 µM (≈ 3.12 µg/mL). Moreover, in the data set on RAW264.7, the Activity is given as 12.32%. The same compound had a negative logarithm of the IC50 (pIC50) in data set [3] of 5.98. For the same compound, the “log(activity)” value in data set [4] was 2.8. `Clc1ccc(CN2CCC3(CC2)OCCc2ccsc23)c(Cl)c1` registered an MIC in data set [2] of 33.9 µM (≈ 12.5 µg/mL). On to `Cc1ccc(S(=O)(=O)N2CCC3(CC2)OCCc2ccsc23)cc1`, for which it took 8.59 µM (≈ 3.12 µg/mL) to inhibit growth in data set [2] (MIC). In the data set on RAW264.7, the Activity is recorded as 22.16%. On to `Fc1ccc(CN2CCC3(CC2)OCCc2ccsc23)c(F)c1`, for which, in data set [2], the MIC was 37.3 µM (≈ 12.5 µg/mL). The same measure, in the same setting: then `O=S(=O)(c1ccc(Cl)cc1Cl)N1CCC2(CC1)OCCc1ccsc12`, with 29.9 µM (≈ 12.5 µg/mL); and `O=S(=O)(c1ccc(F)cc1)N1CCC2(CC1)OCCc1ccsc12`, with 34 µM (≈ 12.5 µg/mL). As for `COc1ccc(C(=O)N2CCC3(CC2)OCCc2ccsc23)cc1`, the minimal inhibitory concentration (MIC) in data set [2] stood at 9.09 µM (≈ 3.12 µg/mL). In the data set with RAW264.7, the Activity came to 14.59%. `Cc1ccc(C(=O)N2CCC3(CC2)OCCc2ccsc23)cc1` registered a minimal inhibitory concentration (MIC) in data set [2] of 19.1 µM (≈ 6.25 µg/mL). The Activity with RAW264.7 was 23.16%. As for `O=C(c1ccc(F)cc1)N1CCC2(CC1)OCCc1ccsc12`, in data set [2], it took 18.9 µM (≈ 6.25 µg/mL) to inhibit growth (MIC). Moreover, in the data set with RAW264.7, the Activity was found to be 18.98%. In the case of `O=S(=O)(c1ccc(Cl)cc1)N1CCC2(CC1)OCCc1ccsc12`, the MIC in data set [2] stood at 65.1 µM (≈ 25 µg/mL). As for `Cc1ccc(CN2CCC3(CC2)OCCc2ccsc23)cc1`, in data set [2], the MIC was 79.8 µM (≈ 25 µg/mL). With `Clc1ccc(CN2CCC3(CC2)OCCc2ccsc23)cc1`, the minimum inhibitory concentration (MIC) in data set [2] came out at 9.35 µM (≈ 3.12 µg/mL). Moreover, in the data set with RAW264.7, the Activity was determined as 26.54%. Moreover, the negative-log IC50 (pIC50) in data set [3] is 5.17. In addition, in data set [4], the “log(activity)” value is listed as 2.4. `Fc1ccc(CN2CCC3(CC2)OCCc2ccsc23)cc1` displayed an MIC in data set [2] of 19.7 µM (≈ 6.25 µg/mL). Besides, the Activity in the data set on RAW264.7 is recorded as 21.67%.

In turn, `O=C(c1ccc(F)cc1F)N1CCC2(CC1)OCCc1ccsc12` gave a minimum inhibitory concentration (MIC) in data set [2] of 8.94 µM (≈ 3.12 µg/mL). In the data set with RAW264.7, the Activity was determined as 34.06%. The negative-log IC50 (pIC50) in data set [3] is 5.46. Moreover, in data set [4], the “log(activity)” value stood at 2.7. `COc1ccc(CN2CCC3(CC2)OCCc2ccsc23)cc1` returned a minimal inhibitory concentration (MIC) in data set [2] of 23.1 µM (≈ 7.62 µg/mL). Still for that read-out and setting: then `O=S(=O)(c1ccccc1)N1CCC2(CC1)OCCc1ccsc12`, with 71.5 µM (≈ 25 µg/mL); and `O=C(c1ccc(Cl)cc1)N1CCC2(CC1)OCCc1ccsc12`, with 71.9 µM (≈ 25 µg/mL). With `O=S(=O)(c1ccc(F)cc1F)N1CCC2(CC1)OCCc1ccsc12`, the lowest concentration to inhibit growth in data set [2] (MIC) was 16.2 µM (≈ 6.25 µg/mL). In addition, the Activity in the data set on RAW264.7 amounted to 31.08%. For the compound `O=C(c1ccc(Cl)cc1Cl)N1CCC2(CC1)OCCc1ccsc12`, the lowest concentration to inhibit growth in data set [2] (MIC) was 32.7 µM (≈ 12.5 µg/mL). For the compound `CC[C@@H](CO)NCCN[C@@H](CC)CO` [ETHAMBUTOL], the lowest concentration to inhibit growth in data set [2] (MIC) was 9.84 µM (≈ 2.01 µg/mL). `NNC(=O)c1ccncc1` [ISONIAZID] displayed a minimum inhibitory concentration (MIC) in data set [2] of 0.66 µM (≈ 0.0905 µg/mL). Besides, in data set [4], the “log(activity)” value amounted to 1.7. `CC1COc2c(N3CCN(C)CC3)c(F)cc3c(=O)c(C(=O)O)cn1c23` (configuration not stated) [OFLOXACIN] came in with an MIC in data set [2] of 2.16 µM (≈ 0.781 µg/mL).

On to `CO[C@H]1/C=C/O[C@@]2(C)Oc3c(C)c(O)c4c(O)c(c(/C=N/N5CCN(C)CC5)c(O)c4c3C2=O)NC(=O)/C(C)=C\C=C\[C@H](C)[C@H](O)[C@@H](C)[C@@H](O)[C@@H](C)[C@H](OC(C)=O)[C@@H]1C` [RIFAMPIN], for which the “log(activity)” value in data set [4] is reported as 2.
